Source: patent US20110212053A1, “PHOSPHATIDYLINOSITOL 3 KINASE INHIBITORS” (priority 2008, published 2011)

Assays:
[1] = tested on: p-AKT(S473) in U-87 MG cells; test: In-cell western blot (cytoblot) of AKT phosphorylation, U-87 MG; format: cell-based; settings: Homo sapiens, read-out: IC50 against the p-AKT(S473) phosphorylation site
Procedure: Compound Preparation: Cell-based assays: 1000× stocks of inhibitors were prepared in DMSO. A 10 mM master stock was prepared and all other stocks were generated by serial dilution of the master stock in DMSO. The final concentration of DMSO in cell-based assays was 0.1% (v/v).
In-cell western blot (cytoblot) mechanistic assay; Measurement of AKT phosphorylation: The in-cell western blot assay is a quantitative 96-well immunocytochemistry assay using fixed cells. Phosphorylated AKT is detected and quantified via either enhanced chemiluminescence (ECL) or near infra-red (LI-COR) methods. Log-phase cells (10,000 A549, RKO or 30,000 U-87 MG) were plated in collagen coated, 96 well plates (Nunc) in 200 μL of growth medium (10% FBS/DMEM) and allowed to attach overnight at 37° C. in 5% CO2 incubator. Black 96 well plates were used for ECL assays. White, clear bottomed 96 well plates were used for LI-COR assays. The following day the growth medium was removed. For experiments using U-87 MG cells and RKO cells, the growth medium was replaced with 200 μL of fresh growth medium containing inhibitors dissolved in DMSO. PI3K inhibitors were dosed using half-log dilutions to generate an eight-point dose-response curve from 0.0 μM-10 μM for EC50 determinations, and the final concentration of DMSO in the test wells was 0.1% (v/v). The inhibitor treated cells were then incubated for 1 hour at 37° C. […]
After the inhibitor incubation phase (with or without IGF-1 stimulation), the medium was aspirated, the cells washed once with Tris-Buffered Saline (TBS) and then fixed in the wells by addition of 200 μL of cold 3.7% (v/v) formaldehyde diluted in TBS to test wells and incubated for 15 minutes at 4° C. […] The wells were then was washed four times with ice-cold TBS-T. Phospho-AKT luminescent signal was detected after a 1 minute incubation of test wells with 100 μL of ECL reagent using a SpectraMax M5 luminometer. (ii) Near-infrared fluorescence detection (LI-COR): After removal of the methanol, wells were blocked with 200 μL of LI-COR blocking buffer for 1 hour at room temperature. […]

PI3Kα(E545K) = biological target: T1, PI3Kα(E545K) (Homo sapiens, UniProt P42336, E545K); test: KinaseGLO luminescent PI3-kinase assay, mutant PI3Kα(E545K); format: biochemical
T1 construct: purchased Invitrogen or Millipore
Procedure: Compound Preparation: KinaseGLO assay: 30× stocks of inhibitors were prepared in DMSO. A 10 mM master stock was prepared and all other stocks were generated by serial dilution of this master stock in DMSO. The final concentration of DMSO in the kinase reaction was 3.3% (v/v).
PI3-Kinase Assay: The KinaseGLO® Luminescent Kinase Assay (Promega) is a luciferin-luciferase based luminescent assay that utilizes a proprietary thermostable luciferase to quantify the ATP remaining in a solution after a kinase reaction. The luminescent signal generated using KinaseGLO® directly correlates with ATP concentration, and therefore inversely correlates with kinase activity.
PI3K enzyme sample was thawed and diluted to 100 ng/μL in enzyme dilution buffer (50 mM HEPES, pH7.5, 3.0 mM MgCl2, 1.0 mM EGTA) and stored on ice. PI3Kα enzyme was diluted to a final concentration of 1 ng/μL in reaction buffer (for PI3Kα; 50 mM HEPES, pH7.5, 100 mM NaCl, 2.0 mM DTT, 3.0 mM MgCl2, 1.0 mM EGTA, 10 μM ATP) and gently mixed. 25 μL of this kinase reaction was then aliquoted into test wells in a Microfluor2 white 96-well plate (Thermo Scientific). As a preincubation step, 1 μl of 30× compound dilutions was added to the appropriate test wells to generate a ten point dose-response ranging from 0.0 μM-10 μM inhibitor. […] Luminescent signal was detected using a SpectraMax M5 (Molecular Devices). Maximal luminescence (no PI3K activity/maximal PI3K inhibition) was determined from reaction buffer plus SC-PI substrate only controls. The minimal signal (maximal PI3K activity) was determined by the 0.0 μM compound (DMSO only) control. IC50 values were calculated via non-linear regression using GraphPad Prism data analysis software.
Compounds were assayed against the Class I PI3Kα, PI3Kβ, PI3Kγ, PI3Kδ, PI3Kα(H1047R) and PI3Kα(E545K) in the KinaseGLO assay as described in Example 2, and against the Class IV PI3K mTOR in the radiometric assay. IC50 values (μM) were determined using 8-10 point half-log dose dilutions and calculated via nonlinear regression analysis using Graphpad Prism data analysis software.

T1 sequence (P42336 whole entry E545K): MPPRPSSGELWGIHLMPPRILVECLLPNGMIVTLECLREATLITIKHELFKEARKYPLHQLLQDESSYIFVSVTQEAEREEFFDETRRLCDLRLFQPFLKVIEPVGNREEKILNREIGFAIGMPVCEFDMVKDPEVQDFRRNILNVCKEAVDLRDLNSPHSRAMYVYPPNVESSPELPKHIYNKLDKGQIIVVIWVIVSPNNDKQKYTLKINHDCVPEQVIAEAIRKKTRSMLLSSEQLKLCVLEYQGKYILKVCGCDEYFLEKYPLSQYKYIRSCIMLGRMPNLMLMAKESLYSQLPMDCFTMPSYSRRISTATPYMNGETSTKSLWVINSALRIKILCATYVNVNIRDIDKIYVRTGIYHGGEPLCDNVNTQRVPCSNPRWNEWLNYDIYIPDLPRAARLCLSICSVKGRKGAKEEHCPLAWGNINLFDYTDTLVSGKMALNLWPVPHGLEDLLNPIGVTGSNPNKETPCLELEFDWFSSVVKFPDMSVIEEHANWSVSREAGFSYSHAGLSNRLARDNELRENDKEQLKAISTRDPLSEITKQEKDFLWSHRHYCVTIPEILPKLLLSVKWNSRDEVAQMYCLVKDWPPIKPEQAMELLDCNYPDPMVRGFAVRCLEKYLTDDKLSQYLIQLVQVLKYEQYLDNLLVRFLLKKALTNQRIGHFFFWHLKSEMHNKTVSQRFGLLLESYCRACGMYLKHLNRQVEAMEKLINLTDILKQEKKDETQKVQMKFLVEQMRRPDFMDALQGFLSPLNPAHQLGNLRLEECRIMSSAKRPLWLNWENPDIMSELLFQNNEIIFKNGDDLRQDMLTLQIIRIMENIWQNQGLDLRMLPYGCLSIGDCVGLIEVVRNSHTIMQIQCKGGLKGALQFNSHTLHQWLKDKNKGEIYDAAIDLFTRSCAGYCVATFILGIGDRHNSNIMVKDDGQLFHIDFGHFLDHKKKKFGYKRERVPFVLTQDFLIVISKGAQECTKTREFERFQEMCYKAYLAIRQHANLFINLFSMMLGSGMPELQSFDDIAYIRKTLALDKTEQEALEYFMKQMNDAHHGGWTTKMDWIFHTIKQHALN
T1 sequence (P27986 whole entry partner): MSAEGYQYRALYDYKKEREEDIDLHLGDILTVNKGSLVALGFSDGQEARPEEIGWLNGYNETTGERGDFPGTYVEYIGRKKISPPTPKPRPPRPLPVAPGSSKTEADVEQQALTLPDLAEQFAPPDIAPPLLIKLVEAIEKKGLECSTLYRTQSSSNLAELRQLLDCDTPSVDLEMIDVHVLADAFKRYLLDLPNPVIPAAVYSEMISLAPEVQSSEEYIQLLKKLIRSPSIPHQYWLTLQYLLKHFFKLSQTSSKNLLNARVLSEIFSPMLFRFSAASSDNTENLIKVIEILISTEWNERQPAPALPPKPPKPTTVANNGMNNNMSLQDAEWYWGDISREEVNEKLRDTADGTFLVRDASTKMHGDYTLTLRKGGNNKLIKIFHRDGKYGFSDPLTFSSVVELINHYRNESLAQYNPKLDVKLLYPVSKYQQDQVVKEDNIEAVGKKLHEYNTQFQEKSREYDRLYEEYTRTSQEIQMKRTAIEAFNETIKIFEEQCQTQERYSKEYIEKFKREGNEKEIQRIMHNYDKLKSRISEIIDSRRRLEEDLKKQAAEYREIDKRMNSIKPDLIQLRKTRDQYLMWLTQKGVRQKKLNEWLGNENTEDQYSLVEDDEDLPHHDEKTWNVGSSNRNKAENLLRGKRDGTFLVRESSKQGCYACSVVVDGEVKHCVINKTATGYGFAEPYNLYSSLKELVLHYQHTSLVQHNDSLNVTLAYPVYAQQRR

| IC50 [1] [nM] | IC50 (PI3Kα(E545K)) [nM] | SMILES |
| --- | --- | --- |
| 88 | 15 to 55 | CC(C)(C#N)c1ccc(-c2n[nH]c3cnc4ccc(-c5cnc6ccccc6c5)cc4c23)cc1 [Compound 1078, 2-methyl-2-(4-(8-(quinolin-3-yl)-3H-pyrazolo[3,4-c]quinolin-1-yl)phenyl)propanenitrile] |
| 54 | < 10 | CC(C)(C#N)c1ccc(-c2n[nH]c3cnc4ccc(-c5cccnc5)cc4c23)cc1 [Compound 1107, 2-methyl-2-(4-(8-(pyridin-3-yl)-3H-pyrazolo[3,4-c]quinolin-1-yl)phenyl)propanenitrile] |
| 81 | 15 to 55 | CC(C)(C#N)c1ccc(-c2n[nH]c3cnc4ccc(-c5ccc6ncccc6c5)cc4c23)cc1 [Compound 1110, 2-methyl-2-(4-(8-(quinolin-6-yl)-3H-pyrazolo[3,4-c]quinolin-1-yl)phenyl)propanenitrile] |
